The source of these data is ChEMBL document CHEMBL1144812, “Small molecules with structural similarities to siderophores as novel antimicrobials against Mycobacterium tuberculosis and Yersinia pestis” (Bioorg Med Chem Lett, 2008).

Each structure is given as a SMILES string.

Broadly, the IC50 is the concentration needed to halve the response being measured. Usually MIC90 stands for an inhibitory concentration at the 90% level, which refers to growth in some studies and to a panel of isolates in others.

Series [1] deals with Yersinia pestis. Briefly: Antimicrobial activity against Yersinia pestis KIM6-2082.1+ in presence of iron rich PMH-D medium. The series is classed as functional, organism-based.
Series [2] deals with Mycobacterium tuberculosis. Description: Antimycobacterial activity against Mycobacterium tuberculosis H37Rv in presence of iron rich GAST-D medium. The series is classed as functional, organism-based.
The nature of series [3]: Cytotoxicity against human HeLa cells after 24 hrs. The series is classed as cell-based. The settings on record: read-out: CD50.
For series [4], the system named is Yersinia pestis. Description: Ratio of MIC90 for Yersinia pestis KIM6-2082.1+ in iron rich PMH-D medium to MIC90 for Yersinia pestis KIM6-2082.1+ in presence of iron limiting PMH-D medium. Type of series: functional.
Series [5] has as its system Yersinia pestis. Briefly: Antimicrobial activity against Yersinia pestis KIM6-2082.1+ in presence of iron limiting PMH-D medium. The series is classed as functional, organism-based.
For series [6], the target named is T1, AMP-binding enzyme family protein (Yersinia pestis, UniProt Q56950).
T1 sequence (Q56950 whole entry): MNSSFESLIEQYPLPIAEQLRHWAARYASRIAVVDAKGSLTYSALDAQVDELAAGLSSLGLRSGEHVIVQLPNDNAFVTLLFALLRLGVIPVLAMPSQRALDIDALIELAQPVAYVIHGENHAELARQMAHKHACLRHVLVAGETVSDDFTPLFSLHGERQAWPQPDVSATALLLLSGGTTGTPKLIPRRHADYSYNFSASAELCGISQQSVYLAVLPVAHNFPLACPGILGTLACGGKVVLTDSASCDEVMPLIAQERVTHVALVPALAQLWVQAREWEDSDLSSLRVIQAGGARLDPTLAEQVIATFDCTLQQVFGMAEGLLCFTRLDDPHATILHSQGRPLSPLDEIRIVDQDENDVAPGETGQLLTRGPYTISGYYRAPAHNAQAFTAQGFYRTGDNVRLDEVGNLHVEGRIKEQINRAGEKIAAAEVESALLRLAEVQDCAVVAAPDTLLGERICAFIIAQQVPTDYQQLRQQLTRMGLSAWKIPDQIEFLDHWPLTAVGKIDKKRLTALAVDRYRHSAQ
Briefly: Inhibition of Yersinia pestis YbtE assessed as incorporation of [3H]salicyl group to HMWP2 protein.

Series [7] concerns Mycobacterium tuberculosis. Description: Ratio of MIC90 for Mycobacterium tuberculosis H37Rv in iron rich GAST-D medium to MIC90 for Mycobacterium tuberculosis H37Rv in presence of iron limiting GAST-D medium. Type of series: functional.
Series [8] relates to Mycobacterium tuberculosis. Description: Antimycobacterial activity against Mycobacterium tuberculosis H37Rv in presence of iron deficient GAST-D medium. Type of series: functional, organism-based.

Take `Cc1ccccc1NC(=S)N1N=C(c2ccccc2O)C[C@H]1c1ccc(O)cc1`: the half-inhibitory concentration (IC50) in the series with Yersinia pestis [1] is over 19 µM; in series [2] it was 83 µM; with Yersinia pestis [5], 3000 nM; in series [6], 700 nM; in series [8], 29 µM. The MIC90 in the series with Yersinia pestis [1] was over 19 µM; in series [2] it was 417 µM; in the series on Yersinia pestis [5], 5 µM; in series [8] it was 63 µM. The CC50 at 24 h in series [3] came to 21 µM. In addition, the figures for the Ratio (in the series with Yersinia pestis [4]; in series [7]) were over 4 and 7, respectively.
As for `COc1cc([C@@H]2CC(c3ccc(O)cc3O)=NN2C(=S)Nc2ccccc2)ccc1O`, the IC50 in the series with Yersinia pestis [1] is over 150 µM; in series [2] it was 333 µM; with Yersinia pestis [5], 600 nM; in series [6], 700 nM; in series [8], 84 µM. In addition, the MIC90 in the series with Yersinia pestis [1] was over 150 µM; in series [2], over 500 µM; with Yersinia pestis [5] it was 2 µM; in series [8] it was 125 µM. For the same compound, in series [3], the CC50 at 24 h is 30 µM. Moreover, the values for the Ratio (in the series with Yersinia pestis [4]; in series [7]) were over 75 and over 4, respectively.
With `Oc1ccccc1C1=NN(C(=S)Nc2ccccc2)[C@H](c2ccc(Cl)cc2)C1`, the IC50 was over 5 µM in the series on Yersinia pestis [1]; at least 500 µM in series [2]; 500 nM in the series with Yersinia pestis [5]; 700 nM in series [6]; at least 500 µM in series [8]. In addition, the MIC90 is over 5 µM in the series on Yersinia pestis [1], at least 500 µM in series [2], 1 µM in the series with Yersinia pestis [5] and at least 500 µM in series [8]. The CC50 at 24 h in series [3] came out at 5 µM. Also, the Ratio with Yersinia pestis [4] was over 5.
As for `Cc1ccccc1NC(=S)N1N=C(c2ccccc2O)C[C@H]1c1ccccc1O`, the IC50 is over 19 µM with Yersinia pestis [1]; 42 µM in series [2]; 2000 nM with Yersinia pestis [5]; 1000 nM in series [6]; 28 µM in series [8]. In addition, the MIC90 was over 19 µM in the series with Yersinia pestis [1], over 500 µM in series [2], 5 µM in the series on Yersinia pestis [5] and 104 µM in series [8]. The CC50 at 24 h in series [3] stood at 17 µM. In addition, the values for the Ratio (with Yersinia pestis [4]; in series [7]) were over 4 and over 5, respectively.
Turning to `Cc1ccc(NC(=S)N2N=C(c3ccccc3O)C[C@H]2c2ccccc2O)cc1`, the IC50 was over 9 µM in the series with Yersinia pestis [1]; 208 µM in series [2]; 800 nM with Yersinia pestis [5]; 500 nM in series [6]; 27 µM in series [8]. Besides, the MIC90 in the series on Yersinia pestis [1] is over 9 µM; in series [2] it was over 250 µM; with Yersinia pestis [5] it was 2 µM; in series [8], 63 µM. In addition, the CC50 at 24 h in series [3] is 11 µM. The results for the Ratio (with Yersinia pestis [4]; in series [7]) were over 5 and over 4, respectively.
With `COc1cc([C@@H]2CC(c3ccccc3O)=NN2C(=S)Nc2ccccc2C)ccc1O`, the IC50 in the series on Yersinia pestis [1] was over 19 µM; in series [2], 96 µM; in the series on Yersinia pestis [5], 3000 nM; in series [6], 1000 nM; in series [8] it was 101 µM. Moreover, the MIC90 was over 19 µM with Yersinia pestis [1], over 500 µM in series [2], 9 µM with Yersinia pestis [5] and 417 µM in series [8]. Further, in series [3], the CC50 at 24 h came to 15 µM. Also, the Ratio with Yersinia pestis [4] is listed as over 2; in series [7] it was over 1.
`NC(=S)N1N=C(c2ccccc2O)C[C@H]1c1ccc(O)cc1`: the 50% inhibitory concentration (IC50) in the series with Yersinia pestis [1] is over 38 µM; in series [2] it was 125 µM; in the series on Yersinia pestis [5], over 38000 nM; in series [6], 500 nM; in series [8] it was 8 µM. Moreover, the MIC90 is over 38 µM in the series with Yersinia pestis [1], 333 µM in series [2], over 38 µM in the series on Yersinia pestis [5] and 21 µM in series [8]. Further, the CC50 at 24 h in series [3] worked out at 398 µM. Also, the Ratio in series [7] was found to be 16.
For `COc1ccccc1NC(=S)N1N=C(c2ccc(O)cc2O)C[C@H]1c1ccc(O)cc1`, the concentration for half-maximal inhibition (IC50) in the series on Yersinia pestis [1] is over 150 µM; in series [2] it was 156 µM; with Yersinia pestis [5], 700 nM; in series [6], 600 nM; in series [8], 80 µM. Moreover, the MIC90 in the series with Yersinia pestis [1] is over 150 µM; in series [2], 250 µM; in the series with Yersinia pestis [5], 3 µM; in series [8], 125 µM. For the same compound, the CC50 at 24 h in series [3] stood at 23 µM. The values for the Ratio (in the series on Yersinia pestis [4]; in series [7]) were over 50 and 2, respectively.
As for `Oc1ccccc1[C@@H]1CC(c2ccccc2)=NN1C(=S)Nc1ccccc1`, the half-maximal inhibitory concentration (IC50) in the series with Yersinia pestis [1] was over 19 µM; in series [2], 42 µM; in the series with Yersinia pestis [5], over 19000 nM; in series [6], over 12500 nM; in series [8], 24 µM. Further, the MIC90 with Yersinia pestis [1] is over 19 µM; in series [2], 167 µM; in the series on Yersinia pestis [5], over 19 µM; in series [8], 125 µM. Besides, the CC50 at 24 h in series [3] turned out to be 19 µM. Further, the Ratio in series [7] came to 1.
For the compound `Oc1ccc(C2=NN(C(=S)Nc3ccccc3)[C@H](c3ccc(O)cc3)C2)cc1`, the IC50 in the series with Yersinia pestis [1] was over 75 µM; in series [2], 105 µM; in the series on Yersinia pestis [5], over 75000 nM; in series [6], over 12500 nM; in series [8] it was 83 µM. Moreover, the MIC90 was over 75 µM in the series with Yersinia pestis [1], 250 µM in series [2], over 75 µM in the series on Yersinia pestis [5] and 125 µM in series [8]. Besides, the CC50 at 24 h in series [3] is 248 µM. Besides, the Ratio in series [7] was found to be 2.
On to `COc1cc([C@@H]2CC(c3ccc(O)cc3O)=NN2C(=S)Nc2ccccc2OC)ccc1O`, for which the IC50 is over 38 µM with Yersinia pestis [1]; 55 µM in series [2]; 17000 nM with Yersinia pestis [5]; 200 nM in series [6]; 51 µM in series [8]. The MIC90 with Yersinia pestis [1] was over 38 µM; in series [2] it was 125 µM; with Yersinia pestis [5], over 38 µM; in series [8], 125 µM. Also, in series [3], the CC50 at 24 h was determined as 26 µM. Moreover, in series [7], the Ratio is 1.
On to `COc1ccccc1NC(=S)N1N=C(c2ccccc2O)C[C@H]1c1ccccc1O`, for which the IC50 was over 5 µM with Yersinia pestis [1]; at least 500 µM in series [2]; 2000 nM with Yersinia pestis [5]; 800 nM in series [6]; at least 500 µM in series [8]. The MIC90 in the series on Yersinia pestis [1] is over 5 µM; in series [2] it was at least 500 µM; in the series with Yersinia pestis [5] it was 5 µM; in series [8], at least 500 µM. The CC50 at 24 h in series [3] came to 15 µM. In the series on Yersinia pestis [4], the Ratio is listed as over 1.
In the case of `Oc1ccc([C@@H]2CC(c3ccccc3O)=NN2C(=S)Nc2ccccc2)cc1`, the IC50 was over 19 µM in the series on Yersinia pestis [1]; 4 µM in series [2]; over 19000 nM in the series on Yersinia pestis [5]; 400 nM in series [6]; 3 µM in series [8]. For the same compound, the MIC90 with Yersinia pestis [1] is over 19 µM; in series [2] it was 12 µM; in the series on Yersinia pestis [5], over 19 µM; in series [8] it was 13 µM. In addition, in series [3], the CC50 at 24 h is 42 µM. Also, the Ratio in series [7] is on record as 1.
As for `COc1ccc(NC(=S)N2N=C(c3ccc(O)cc3O)C[C@H]2c2ccc(O)cc2)cc1`, the half-maximal inhibitory concentration (IC50) with Yersinia pestis [1] was over 150 µM; in series [2], 250 µM; in the series with Yersinia pestis [5] it was 400 nM; in series [6], over 12500 nM; in series [8], 63 µM. Also, the MIC90 with Yersinia pestis [1] is over 150 µM; in series [2], over 500 µM; in the series on Yersinia pestis [5], 5 µM; in series [8] it was 167 µM. Also, the CC50 at 24 h in series [3] was 62 µM. Moreover, the results for the Ratio (in the series with Yersinia pestis [4]; in series [7]) were over 30 and over 3, respectively.
`COc1ccc(NC(=S)N2N=C(c3ccccc3O)C[C@H]2c2ccccc2O)cc1`: the half-inhibitory concentration (IC50) in the series with Yersinia pestis [1] was over 2 µM; in series [2], 167 µM; in the series with Yersinia pestis [5] it was 1000 nM; in series [6], 200 nM; in series [8] it was 28 µM. Also, the MIC90 in the series with Yersinia pestis [1] was over 2 µM; in series [2], over 250 µM; with Yersinia pestis [5], 3 µM; in series [8], 63 µM. For the same compound, the CC50 at 24 h in series [3] came out at 1 µM. In addition, the Ratio in the series on Yersinia pestis [4] is over 0.7; in series [7], over 4.
As to `COc1ccccc1NC(=S)N1N=C(c2ccccc2O)C[C@H]1c1ccc(O)cc1`, the 50% inhibitory concentration (IC50) in the series on Yersinia pestis [1] is over 19 µM; in series [2], at least 500 µM; with Yersinia pestis [5], 2000 nM; in series [6], 300 nM; in series [8], at least 500 µM. The MIC90 in the series on Yersinia pestis [1] was over 19 µM; in series [2], at least 500 µM; with Yersinia pestis [5] it was 6 µM; in series [8], at least 500 µM. Also, the CC50 at 24 h in series [3] worked out at 1 µM. In addition, the Ratio with Yersinia pestis [4] is reported as over 3.
`CO[C@H]1/C=C/O[C@@]2(C)Oc3c(C)c(O)c4c(O)c(c(/C=N/N5CCN(C)CC5)c(O)c4c3C2=O)NC(=O)/C(C)=C\C=C\[C@H](C)[C@H](O)[C@@H](C)[C@@H](O)[C@@H](C)[C@H](OC(C)=O)[C@@H]1C` [RIFAMPIN]: the MIC90 in series [2] and in series [8] was 0.008 µM throughout. In series [3], the CC50 at 24 h was 190 µM. Also, the Ratio in series [7] is listed as 1.
